Reference: publication PMC3197222 (Journal of the American Chemical Society, 2009)
“Also recorded” adds a separate entry of the source.

How the values were obtained:
[1] = system: DNase; assay: Phage-based ELISA of phage-displayed DNase ligands; format: binding; conditions: for binding to DNase, unwrapped phage-displayed ligand: absence of 1-ext wrapper, versus M13-KO7 phage; for binding affinity and specificity for DNase, phage-displayed: phage-based ELISA (Figure 5); for binding to DNase, wrapped phage-displayed ligand: wrapped with 1-ext (2.5 µM), versus M13-KO7 phage control
[2] = system: DNase; conditions: selected with Lys18-wrapped phage library; ref [15]; cited from earlier work
[3] = system: DNase; assay: SPR imaging of phage-displayed DNase-1 adsorption; format: binding; conditions: phage-displayed DNase-1, 2.5 nM phage wrapped in 2.5 µM polymer 1 in PBS (Figure S2)

Sequence: EEWYCLRQGTFETLFF [DNase-2]
- binding to DNase, unwrapped phage-displayed ligand [1]: stronger binding to DNase than the negative control M13-KO7 phage
- binding affinity and specificity for DNase, phage-displayed [1]: moderate to high affinity binding and specificity for DNase
- binding to DNase, wrapped phage-displayed ligand [1]: bound with higher affinity to DNase than the M13-KO7 phage control, with DNase-2 having much greater apparent affinity; also recorded: strong binding to DNase was retained

Sequence: EEWYCLRQGTFETLYCFW [DNase-L]
- DNase ligand (previous report) [2]: DNase ligand

Sequence: RWCLSELSG [DNase-1]
- binding to DNase, unwrapped phage-displayed ligand [1]: stronger binding to DNase than the negative control M13-KO7 phage
- binding affinity and specificity for DNase, phage-displayed [1]: moderate to high affinity binding and specificity for DNase
- binding to DNase, wrapped phage-displayed ligand [1]: bound with higher affinity to DNase than the M13-KO7 phage control
- SPR imaging binding to DNase [3]: binds well to the target DNase
